Reference: paper PMC4336331, “Novel Receptor-Derived Cyclopeptides to Treat Heart Failure Caused by Anti-β1-Adrenoceptor Antibodies in a Human-Analogous Rat Model” (PLoS ONE, 2015)
Peptide text beside a SMILES is read from it.

Assays:
[1] = system: IL1-β, TGF-β1 transcripts; experiment: qRT-PCR of cardiac profibrotic markers, therapy-study; type: in vivo, Lewis/CrlBR rats; settings: qRT-PCR of apical cardiac tissues, normalised to controls (Fig. 3D)
Description: Total RNA was isolated from frozen myocardium by RNeasy mini Kit (Qiagen, Hilden, Germany). Reverse transcription of total RNA isolated from frozen myocardium was performed in 96-well plates utilising a high capacity RNA-to-cDNA master mix (Applied Biosystems, Foster City, CA). PCR reactions were conducted in the presence of the fluorescent dye Sybr-Green (Cambrex BioScience, East Rutherford, NY) and the reference-dye 6-carboxy-X-rhodamine (ROX) using an ABI PRISM sequence detection system 7700 (Applied Biosystems). All amplification products were controlled for specificity by running a melting curve analysis; results were calculated using the 2^-ΔΔCT method. The relative expression levels were derived from a standard curve and normalised to GAPDH as an endogenous control. Quantitative real-time PCR (qRT-PCR) analyses are presented as fold change compared to untreated (0.9% NaCl-injected) control hearts. […]
Fig 3 Histology of rat hearts (therapy-study). […] (B) Quantification of fibrotic scars in midventricular 2μm-sections (mvhs, mid-ventricular heart-section). […] For all parameters shown, differences between the treatment-groups were assessed by […] one way ANOVA and Dunnett`s post-hoc test; *p<0.05; **p<0.001.

[2] = system: anti-β1EC2-secreting cells; experiment: ELISPOT of splenocytes and bone marrow cells; type: in vivo, Lewis/CrlBR rats
Description: (b) For ELISPOT assays plates were coated overnight with either 1.8 μg/ml anti-rat IgG (H+L) or the specific antigens (GST/β1EC2-FP or GST alone) in 50 mM Tris-buffer, pH 9.4. The plates were then washed 3 times, blocked with BSA (3h, 37°C), and incubated overnight at 37°C with splenocytes or bone marrow cells from rats treated as indicated in RPMI 1640/X-VIVO-15 medium supplemented with 10% FCS (1x10^3 to 10^6 cells per well). After 12 h the cells were discarded and the plates were washed several times (PBS/0.5% Tween) before an alkaline phosphatase-conjugated secondary anti-rat-IgG antibody (0.3 μg/ml) was added to detect bound rat IgG. After further incubation (3h, 37°C) and washing-steps (3 times PBS/0.5% Tween) the plates were developed using LMP/BCIP 5:1 (1.0 ml per well; LMP, low melting agarose; BCIP, 5-bromo-4-chloro-3-indolyl phosphate p-toluidine salt, a blue-colored dye).
Fig 5 Immunology of cyclic β1EC2-peptides: fate of β1EC2-specific T- and B-cells. (A) Titer-course of anti-β1EC2-abs in β1EC2-CP-treated rats during the first 6 months of the prevention-study before and 24h after cyclopeptide-injection. Time-points of antigen-boosts are indicated by (red) lines, time-points of CP-injections by (green) arrows. For better readability error-bars are not shown in the graph. (B) Pre-experiments (antigenic recall-assays) performed with CD4^+ T-cells prepared from spleens of GST/β1EC2 fusion-protein (FP)-immunised untreated (n = 3, black) vs. 0.9%NaCl-injected control rats (n = 3, white). (C and D) Reactivities of CD4^+ T-cells prepared from (C) preventively or (D) therapeutically β1EC2-CP- (green) or bisoprolol-treated animals (blue) compared to cells prepared from immunised untreated (black) or corresponding 0.9%NaCl-injected control rats (white). Columns ± error bars represent mean T-cell reactivities ±SEM normalized to medium (abbreviations: EC2-CP, cyclopeptide mimicking β1EC2; GST, glutathion-S-transferase; PPD, purified protein derivative; FP, GST/β1EC2 fusion-protein). […]

[3] = Half-life of β1EC2-peptides in rat whole blood ex vivo; settings: for Half-life in whole blood, in words: ex vivo incubation experiments with whole blood (Fig. 1G); for half-life: rat, whole blood

SMILES	reduction of the increases in cardiac transcripts of profibrotic markers (IL1-β, TGF-β1) [1] [%]	overall numbers of IgG-producing cells, in words ([2]; ELISPOT (Fig. 5F, H, and J))	frequencies of anti-β1EC2-producing (long-lived) PC, in words ([2]; ELISPOT, splenocytes or bone marrow cells two weeks after the last antigen-boost (Fig. 5E and F))	Half-life in whole blood, in words [3]	half-life [3] [days]	reduction in the frequencies of splenocytes secreting anti-β1EC2-abs, in words ([2]; ELISPOT 3 days after antigen-boost (S5A Fig.))
CC(C)NCC(O)COc1ccc(COCCOC(C)C)cc1 (stereo not drawn) [bisoprolol, reference compound]	~50	–	–	–	–	–
CC(C)[C@@H]1NC(=O)[C@H](Cc2ccccc2)NC(=O)[C@H](CC(=O)O)NC(=O)[C@H](CS)NC(=O)[C@H](CS)NC(=O)[C@H](CCCCN)NC(=O)[C@@H]2CCCN2C(=O)[C@H](CC(=O)O)NC(=O)[C@H](CC(N)=O)NC(=O)[C@H](Cc2ccc(O)cc2)NC(=O)[C@H](CS)NC(=O)[C@H](CCCNC(=N)N)NC(=O)[C@H](CCCNC(=N)N)NC(=O)[C@H](C)NC(=O)[C@H](CCC(=O)O)NC(=O)[C@H](CC(=O)O)NC(=O)[C@H](CO)NC(=O)[C@H](CCC(=O)O)NC(=O)[C@H](C)NC(=O)[C@H](CCCNC(=N)N)NC(=O)[C@H](C)NC(=O)[C@H](CCC(N)=O)NC(=O)CNC(=O)[C@H](CCCNC(=N)N)NC(=O)[C@H](CC(N)=O)NC(=O)[C@H]([C@@H](C)O)NC1=O [β1EC2-CP] (cyclo(AESDEARRCYNDPKCCDFVTNRGQAR))	~50	not at all affected	did not reduce	days	20.2	–
CC(C)[C@H](NC(=O)[C@H](Cc1ccccc1)NC(=O)[C@H](CC(=O)O)NC(=O)[C@H](CS)NC(=O)[C@H](CS)NC(=O)[C@H](CCCCN)NC(=O)[C@@H]1CCCN1C(=O)[C@H](CC(=O)O)NC(=O)[C@H](CC(N)=O)NC(=O)[C@H](Cc1ccc(O)cc1)NC(=O)[C@H](CS)NC(=O)[C@H](CCCNC(=N)N)NC(=O)[C@H](CCCNC(=N)N)NC(=O)[C@H](C)NC(=O)[C@H](CCC(=O)O)NC(=O)[C@H](CC(=O)O)NC(=O)[C@H](CO)NC(=O)[C@H](CCC(=O)O)NC(=O)[C@H](C)NC(=O)[C@H](CCCNC(=N)N)NC(=O)[C@H](C)N)C(=O)N[C@H](C(=O)N[C@@H](CC(N)=O)C(=O)N[C@@H](CCCNC(=N)N)C(=O)NCC(N)=O)[C@@H](C)O [β1EC2-Lin] (H-ARAESDEARRCYNDPKCCDFVTNRG-NH2; N-terminus and C-terminus assumed)	–	–	–	hours	0.167	not achieved
